# Molecular target: T1, GilR (Streptomyces griseoflavus, UniProt Q7X2G7)
# T1 sequence (Q7X2G7 1-498): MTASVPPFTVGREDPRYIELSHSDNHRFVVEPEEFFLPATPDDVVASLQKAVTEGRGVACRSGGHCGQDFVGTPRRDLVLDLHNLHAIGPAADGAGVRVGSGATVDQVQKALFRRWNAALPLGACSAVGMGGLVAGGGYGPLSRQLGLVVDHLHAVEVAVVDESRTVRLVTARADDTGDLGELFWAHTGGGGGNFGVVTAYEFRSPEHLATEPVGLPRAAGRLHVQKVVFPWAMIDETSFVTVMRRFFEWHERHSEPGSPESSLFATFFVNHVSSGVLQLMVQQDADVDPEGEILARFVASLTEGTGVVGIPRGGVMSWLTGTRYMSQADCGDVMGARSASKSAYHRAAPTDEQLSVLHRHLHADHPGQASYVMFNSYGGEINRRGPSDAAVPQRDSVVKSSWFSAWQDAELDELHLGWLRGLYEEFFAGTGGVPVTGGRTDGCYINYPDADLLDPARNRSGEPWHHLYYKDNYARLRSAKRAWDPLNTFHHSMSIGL
# Assay: UV spectrum of purified protein
# Format: binding
# Conditions: covalent
smiles,measurement,value
Cc1cc2nc3c(=O)[nH]c(=O)nc-3n(C[C@H](O)[C@H](O)[C@H](O)COP(=O)(O)OP(=O)(O)OC[C@H]3O[C@@H](n4cnc5c(N)ncnc54)[C@H](O)[C@@H]3O)c2cc1C [FAD],UV spectrum of purified protein; further analysis in supplement,FAD in fact is covalently bound to the enzyme (see the Supporting Information)

# Reference: publication PMC2879341 (Chembiochem : a European journal of chemical biology, 2009)
